Where no end group is shown, it is not given here.
Key:
Foxp3^+CD4^+ Tregs = test: Isolated Tregs co-cultured with SP, with or without NK1R antagonist (recovered Tregs); assay type: cell-based, mice; conditions: SP at 0.1, 1, and 10 nM in vitro; tested 0.01-10 nM
Protocol: FIGS. 3A and 3B show the results of the in vitro effect of SP on Treg cells. The normal functional Foxp3^+CD4^+ Tregs were isolated from naive mice and co-cultured with different doses of SP, e.g., at 0.01, 0.1, 1, and 10 nM in vitro. […] On the contrary, addition of the NK1R antagonist prevented the loss of Tregs (FIG. 3B).

[1] = test system: bone marrow-derived dendritic cells (BMDCs); test: BMDC maturation (MHC II expression) in the presence of SP, flow cytometry; assay type: cell-based, C57BL/6 mice; conditions: SP 25, 50 and 100 μg/mL for 18 hours; p=0.03 and p=0.02 for 50 and 100 μg/mL vs. vehicle
Protocol: Generation of Bone Marrow-Derived Dendritic Cells (BMDCs): Long bones (femur and tibia) were harvested from C57BL/6 mice and cell suspension was prepared. Cells were incubated with Red blood cell (RBC) lysis buffer (Sigma-Aldrich, St. Louis, Mo.) at 37° C. for 10 minutes. […]
Single Cell Suspension Preparation and Flow Cytometry: Submandibular and cervical draining lymph nodes (DLNs) were harvested and single cell suspensions were prepared. […] Stained cells were examined using an LSRII Flow Cytometer (BD Biosciences, Franklin Lakes, N.J., USA), and data were analyzed using commercial Summit software (Summit v4.3; Dako Colorado, Inc., Fort Collins, Colo.).
Mature APCs play a key role in the activation of THh17 cells and the autoimmune response in DED (Barabino S. et al. Prog Retin Eye Res 2012, 31:271-85; Stevenson W, Chauhan S K, Dana R: Dry eye disease: an immune-mediated ocular surface disorder. Arch Ophthalmol 2012, 130:90-100; Hamrah P, et al. Invest Ophthalmol Vis Sci 2003, 44:581-9). Given that increased SP levels in response to desiccating stress was observed, the effect of SP on maturation of APCs was next evaluated. […]

CD4^+CD25^+Foxp3^+ Tregs = test: Tregs co-cultured with SP with or without Spantide I: phenotype, cytokines, suppression of effector T cell proliferation; assay type: cell-based, C57BL/6 mice
Protocol: CD4^+CD25^+Foxp3^+ Tregs were isolated from draining lymph nodes (DLN) of naïve female C57BL/6 mice.
Isolated Tregs were co-cultured with SP (1 μM) with or without Spantide I (10 μM) for 48 hours. Phenotype of Tregs was evaluated by flow cytometry, and the capacity of Tregs to suppress effector T cell proliferation was investigated.

[2] = test system: corneal epithelial wound healing; conditions: topical application, diabetic mice; cited from earlier work

SP: substance P, an 11-amino acid neuropeptide, endogenous ligand of NK1R (RPKPQQFFGLM-NH2; ends and bridges not checked; UniProt P20366 58-68, looked up)
Tregs recovered after co-culture with SP (Foxp3^+CD4^+ Tregs): significantly reduced Tregs
mean fluorescence intensity (MFI) of MHC II in BMDCs [1]: significant and dose-dependent increase
expression of inhibitory molecules Foxp3, CTLA4 and PD-1 by Tregs (CD4^+CD25^+Foxp3^+ Tregs; SP 1 μM, 48 hours, in vitro): suppresses the expression
secretion of immunoregulatory cytokines (TGFβ and IL-10) by Tregs (CD4^+CD25^+Foxp3^+ Tregs; SP 1 μM, 48 hours, in vitro): significantly lower levels
capacity of Tregs to suppress effector T cell proliferation in vitro (CD4^+CD25^+Foxp3^+ Tregs; Tregs pre-incubated with SP): lower capacity
corneal epithelial wound healing [2]: promotes corneal epithelial wound healing

Reference: patent US20220288028A1, “A THERAPEUTIC APPROACH FOR TREATING NON-INFECTIOUS OCULAR IMMUNOINFLAMMATORY DISORDERS” (The Schepens Eye Research Institute, Inc., priority 2019, published 2022)
